Reference: ChEMBL document CHEMBL5291721, “A preclinical secondary pharmacology resource illuminates target-adverse drug reaction associations of marketed drugs” (Nat Commun, 2023)

Assays:
[1] = biological target: Beta-3 adrenergic receptor (Homo sapiens, UniProt P13945)
B1 bradykinin receptor = biological target: T1, B1 bradykinin receptor (Homo sapiens, UniProt P46663)
T1 sequence (P46663 whole entry): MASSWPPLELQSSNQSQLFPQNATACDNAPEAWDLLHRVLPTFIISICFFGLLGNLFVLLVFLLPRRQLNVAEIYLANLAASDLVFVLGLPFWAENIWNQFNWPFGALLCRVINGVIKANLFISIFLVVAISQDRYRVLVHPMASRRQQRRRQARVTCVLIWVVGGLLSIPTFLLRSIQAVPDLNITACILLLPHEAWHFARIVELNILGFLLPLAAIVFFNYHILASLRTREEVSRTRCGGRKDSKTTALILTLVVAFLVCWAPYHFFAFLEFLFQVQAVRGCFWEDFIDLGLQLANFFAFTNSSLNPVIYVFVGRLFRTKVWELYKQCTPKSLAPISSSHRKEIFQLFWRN

Glucagon receptor = Glucagon receptor (Homo sapiens, UniProt P47871)
[2] = biological target: T2, Neuropeptide Y receptor type 2 (Homo sapiens, UniProt P49146)
T2 sequence (P49146 whole entry): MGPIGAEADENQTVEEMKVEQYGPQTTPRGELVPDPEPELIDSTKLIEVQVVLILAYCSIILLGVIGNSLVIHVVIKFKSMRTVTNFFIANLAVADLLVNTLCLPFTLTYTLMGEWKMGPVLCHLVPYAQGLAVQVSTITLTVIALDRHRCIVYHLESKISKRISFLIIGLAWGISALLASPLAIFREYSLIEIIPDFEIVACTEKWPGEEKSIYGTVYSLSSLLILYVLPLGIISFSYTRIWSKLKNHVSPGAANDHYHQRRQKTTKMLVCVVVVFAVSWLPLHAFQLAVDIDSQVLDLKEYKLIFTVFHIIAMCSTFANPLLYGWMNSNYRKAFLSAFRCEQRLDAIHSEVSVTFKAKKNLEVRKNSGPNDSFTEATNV

Substance-P receptor = Substance-P receptor (Homo sapiens, UniProt P25103)
Androgen receptor = biological target: T3, Androgen receptor (Homo sapiens, UniProt P10275)
T3 sequence (P10275 whole entry): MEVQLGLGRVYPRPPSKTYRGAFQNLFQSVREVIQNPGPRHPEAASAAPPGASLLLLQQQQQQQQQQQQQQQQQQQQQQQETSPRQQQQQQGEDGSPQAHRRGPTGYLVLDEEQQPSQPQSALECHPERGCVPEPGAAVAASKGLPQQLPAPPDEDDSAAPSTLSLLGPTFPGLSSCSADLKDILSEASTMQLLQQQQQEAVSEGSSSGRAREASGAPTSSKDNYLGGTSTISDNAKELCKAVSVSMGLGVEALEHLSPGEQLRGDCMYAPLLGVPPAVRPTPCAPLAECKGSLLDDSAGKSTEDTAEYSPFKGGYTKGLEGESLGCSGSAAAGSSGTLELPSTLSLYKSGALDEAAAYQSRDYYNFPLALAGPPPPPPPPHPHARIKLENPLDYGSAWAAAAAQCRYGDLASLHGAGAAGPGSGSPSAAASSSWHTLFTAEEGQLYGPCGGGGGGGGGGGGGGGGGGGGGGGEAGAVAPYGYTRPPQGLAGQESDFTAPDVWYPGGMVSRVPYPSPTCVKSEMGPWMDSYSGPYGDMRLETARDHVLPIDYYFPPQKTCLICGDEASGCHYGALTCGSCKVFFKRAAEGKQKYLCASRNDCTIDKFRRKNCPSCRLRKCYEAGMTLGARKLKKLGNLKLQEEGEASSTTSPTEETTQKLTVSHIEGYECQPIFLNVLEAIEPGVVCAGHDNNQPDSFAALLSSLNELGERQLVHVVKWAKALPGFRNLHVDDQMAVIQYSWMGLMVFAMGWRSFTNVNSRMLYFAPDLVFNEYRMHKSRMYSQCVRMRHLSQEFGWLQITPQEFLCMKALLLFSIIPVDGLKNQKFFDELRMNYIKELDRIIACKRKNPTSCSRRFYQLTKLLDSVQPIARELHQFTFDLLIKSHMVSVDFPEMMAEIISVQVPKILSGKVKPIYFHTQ

[3] = biological target: T4, Peroxisome proliferator-activated receptor gamma (Homo sapiens, UniProt P37231); format: functional
T4 sequence (P37231 whole entry): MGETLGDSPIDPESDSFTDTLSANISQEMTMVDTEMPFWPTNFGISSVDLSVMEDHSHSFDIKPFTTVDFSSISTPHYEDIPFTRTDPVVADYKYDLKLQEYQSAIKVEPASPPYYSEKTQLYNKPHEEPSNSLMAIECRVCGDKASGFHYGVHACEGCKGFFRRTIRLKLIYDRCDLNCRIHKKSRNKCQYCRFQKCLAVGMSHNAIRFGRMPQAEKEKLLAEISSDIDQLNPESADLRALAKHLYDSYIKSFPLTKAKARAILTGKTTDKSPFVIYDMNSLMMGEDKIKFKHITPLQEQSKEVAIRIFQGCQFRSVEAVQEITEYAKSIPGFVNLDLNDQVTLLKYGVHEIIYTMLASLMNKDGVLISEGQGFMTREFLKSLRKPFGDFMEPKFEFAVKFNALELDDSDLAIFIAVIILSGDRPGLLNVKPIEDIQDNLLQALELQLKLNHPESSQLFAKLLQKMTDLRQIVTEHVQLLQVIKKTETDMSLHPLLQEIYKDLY

[4] = biological target: T4, Peroxisome proliferator-activated receptor gamma; format: functional; remark: listed apart in the source
Note: assay procedure not described here.

Sequence of Glucagon receptor (P47871 whole entry): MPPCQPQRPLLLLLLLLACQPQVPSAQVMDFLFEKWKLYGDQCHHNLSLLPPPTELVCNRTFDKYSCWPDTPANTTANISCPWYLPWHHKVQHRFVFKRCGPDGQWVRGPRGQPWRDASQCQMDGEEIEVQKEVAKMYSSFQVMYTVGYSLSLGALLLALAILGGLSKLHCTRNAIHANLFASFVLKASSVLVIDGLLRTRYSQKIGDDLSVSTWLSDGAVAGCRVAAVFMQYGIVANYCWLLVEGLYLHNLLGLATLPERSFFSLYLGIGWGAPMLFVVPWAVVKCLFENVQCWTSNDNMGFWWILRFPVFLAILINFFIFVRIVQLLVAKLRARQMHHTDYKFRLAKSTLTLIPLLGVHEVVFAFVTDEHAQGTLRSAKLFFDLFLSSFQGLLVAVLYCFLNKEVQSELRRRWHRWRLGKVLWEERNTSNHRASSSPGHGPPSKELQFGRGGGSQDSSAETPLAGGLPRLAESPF
Sequence of Substance-P receptor (P25103 whole entry): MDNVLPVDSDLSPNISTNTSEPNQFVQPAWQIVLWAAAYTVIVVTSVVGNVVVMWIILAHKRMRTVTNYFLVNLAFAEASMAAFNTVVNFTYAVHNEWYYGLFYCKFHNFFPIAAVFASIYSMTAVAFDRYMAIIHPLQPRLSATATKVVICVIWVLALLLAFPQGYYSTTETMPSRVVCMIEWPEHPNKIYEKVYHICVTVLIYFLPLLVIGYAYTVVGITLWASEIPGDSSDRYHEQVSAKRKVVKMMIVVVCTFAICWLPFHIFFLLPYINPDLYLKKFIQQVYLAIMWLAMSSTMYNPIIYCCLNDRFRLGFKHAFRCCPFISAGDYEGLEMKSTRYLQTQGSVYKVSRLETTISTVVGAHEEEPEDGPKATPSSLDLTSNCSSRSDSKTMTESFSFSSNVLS
Sequence of Beta-3 adrenergic receptor (P13945 whole entry): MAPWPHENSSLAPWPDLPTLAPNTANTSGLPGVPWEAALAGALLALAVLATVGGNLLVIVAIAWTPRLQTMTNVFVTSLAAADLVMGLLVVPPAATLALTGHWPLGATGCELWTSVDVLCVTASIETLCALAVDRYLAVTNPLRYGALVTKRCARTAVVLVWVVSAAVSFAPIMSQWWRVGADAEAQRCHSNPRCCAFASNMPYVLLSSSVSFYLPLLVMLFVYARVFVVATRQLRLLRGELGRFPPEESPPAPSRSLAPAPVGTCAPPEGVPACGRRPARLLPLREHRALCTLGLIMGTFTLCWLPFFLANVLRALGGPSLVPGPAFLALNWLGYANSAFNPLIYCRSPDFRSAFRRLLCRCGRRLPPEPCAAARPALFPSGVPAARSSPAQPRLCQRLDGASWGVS

Row | Compound | AC50 [1] | AC50 (B1 bradykinin receptor) | AC50 (Glucagon receptor) | AC50 [2] | AC50 (Substance-P receptor) | AC50 (Androgen receptor) | also measured
1 | CCOC(=O)[C@H](CCc1ccccc1)N[C@@H](C)C(=O)N1[C@H](C(=O)O)C[C@@H]2CCC[C@@H]21 | > 30 µM | > 30 µM | > 30 µM | > 30 µM | > 10 µM | – | –
2 | CC(=O)Nc1ccc(O)cc1 [ACETAMINOPHEN] | – | – | – | – | – | > 30 µM | –
3 | C=CCc1ccccc1OCC(O)CNC(C)C (stereo not given) [ALPRENOLOL] | – | – | – | – | – | > 0.3 µM | –
4 | CC[C@H]1OC(=O)[C@H](C)[C@@H](O[C@H]2C[C@@](C)(OC)[C@@H](O)[C@H](C)O2)[C@H](C)[C@@H](O[C@@H]2O[C@H](C)C[C@H](N(C)C)[C@H]2O)[C@](C)(O)C[C@@H](C)CN(C)[C@H](C)[C@@H](O)[C@]1(C)O [AZITHROMYCIN] | > 30 µM | > 30 µM | > 30 µM | > 30 µM | > 10 µM | – | –
5 | NCC(CC(=O)O)c1ccc(Cl)cc1 (stereo not given) [BACLOFEN] | > 30 µM | > 30 µM | > 30 µM | > 30 µM | > 10 µM | – | AC50 [3]: > 30 µM; AC50 [4]: > 30 µM
6 | CC(C)C[C@H]1C(=O)N2CCC[C@H]2[C@]2(O)O[C@](NC(=O)[C@@H]3C=C4c5cccc6[nH]c(Br)c(c56)C[C@H]4N(C)C3)(C(C)C)C(=O)N12 [BROMOCRIPTINE] | 18.9 µM | > 30 µM | > 30 µM | > 30 µM | – | – | AC50 [3]: > 30 µM; AC50 [4]: > 30 µM
7 | CN(C)CCn1nnnc1SCC1=C(C(=O)O)N2C(=O)[C@@H](NC(=O)Cc3csc(N)n3)[C@H]2SC1 [CEFOTIAM] | – | – | – | – | – | > 30 µM | –
8 | Cc1ccc(-c2cc(C(F)(F)F)nn2-c2ccc(S(N)(=O)=O)cc2)cc1 [CELECOXIB] | 5.2 µM | > 30 µM | > 30 µM | > 30 µM | > 10 µM | – | –
9 | CC1=C(C(=O)O)N2C(=O)[C@@H](NC(=O)[C@H](N)c3ccccc3)[C@H]2SC1 [CEPHALEXIN ANHYDROUS] | > 30 µM | > 30 µM | > 30 µM | > 30 µM | > 10 µM | – | –
10 | COCc1c(C(C)C)nc(C(C)C)c(/C=C/[C@@H](O)C[C@@H](O)CC(=O)O)c1-c1ccc(F)cc1 [CERIVASTATIN] | – | – | – | – | – | > 30 µM | –
11 | CN(C)CCC(c1ccc(Cl)cc1)c1ccccn1 (stereo not given) [CHLORPHENIRAMINE] | > 30 µM | > 30 µM | > 30 µM | > 30 µM | > 10 µM | – | –
12 | CN(C)[C@@H](c1cccc(O)c1)[C@H]1CCCC[C@H]1O [CIRAMADOL] | – | – | – | – | – | > 30 µM | –
13 | CN(C)CC(c1ccc(O)cc1)C1(O)CCCCC1 (stereo not given) [DESVENLAFAXINE] | – | – | – | – | – | > 30 µM | –
14 | O=C(Cc1ccc(-c2ccccc2)cc1)Nc1ccccn1 [DIFENPIRAMIDE] | – | – | – | – | – | > 30 µM | –
15 | Cc1cc(C#N)cc(C)c1Oc1nc(Nc2ccc(C#N)cc2)nc(N)c1Br [ETRAVIRINE] | – | – | – | – | – | > 30 µM | –
16 | O=C(O)c1cc(O)ccc1O [GENTISIC ACID] | – | – | – | – | – | > 30 µM | –
17 | CCC1=C(C)CN(C(=O)NCCc2ccc(S(=O)(=O)NC(=O)N[C@H]3CC[C@H](C)CC3)cc2)C1=O [GLIMEPIRIDE] | – | – | – | – | – | > 30 µM | –

Row | Compound | AC50 [1] | AC50 (B1 bradykinin receptor) | AC50 (Glucagon receptor) | AC50 [2] | AC50 (Substance-P receptor) | AC50 (Androgen receptor) | also measured
18 | C[C@]12CCC(=O)C=C1CC[C@@H]1[C@@H]2[C@@H](O)C[C@@]2(C)[C@H]1CC[C@]2(O)C(=O)CO [HYDROCORTISONE] | > 30 µM | > 30 µM | > 30 µM | > 30 µM | > 10 µM | – | –
19 | CC(C)Nc1ncccn1 [ISAXONINE] | – | – | – | – | – | > 30 µM | –
20 | CCC(C)n1ncn(-c2ccc(N3CCN(c4ccc(OCC5COC(Cn6cncn6)(c6ccc(Cl)cc6Cl)O5)cc4)CC3)cc2)c1=O (stereo not given) [ITRACONAZOLE] | > 30 µM | > 30 µM | > 30 µM | > 30 µM | 1.54 µM | – | –
21 | C[C@@H](O)[C@H]1C(=O)N2C(C(=O)O)=C(S[C@@H]3CN[C@H](C(=O)N(C)C)C3)[C@H](C)[C@H]12 [MEROPENEM] | – | – | – | – | – | – | AC50 [3]: > 300 µM; AC50 [4]: > 300 µM
22 | OCCN1C[C@H](O)[C@@H](O)[C@H](O)[C@H]1CO [MIGLITOL] | – | – | – | – | – | > 30 µM | –
23 | CC[C@H]1[C@@H](O)[C@@H]2[C@H](CC[C@]3(C)[C@@H]([C@H](C)CCC(=O)O)CC[C@@H]23)[C@@]2(C)CC[C@@H](O)C[C@@H]12 [OBETICHOLIC ACID] | – | – | – | – | – | > 30 µM | –
24 | CC[N+]1(C)[C@@H]2CC(OC(=O)[C@H](CO)c3ccccc3)C[C@H]1[C@@H]1O[C@@H]12 (stereo not given in full) [OXITROPIUM] | – | – | – | – | – | > 30 µM | –
25 | CN(C)S(=O)(=O)c1ccc2c(c1)N(CCCN1CCC(CCO)CC1)c1ccccc1S2 [PIPOTIAZINE] | – | – | – | – | – | > 30 µM | –
26 | COCCCN1CCC(NC(=O)c2cc(Cl)c(N)c3c2OCC3)CC1 [PRUCALOPRIDE] | – | – | – | – | – | – | AC50 [3]: > 30 µM; AC50 [4]: > 30 µM
27 | CCC(=O)NCC[C@@H]1CCc2ccc3c(c21)CCO3 [RAMELTEON] | – | – | – | – | – | > 30 µM | –
28 | CS(=O)(=O)c1ccc(C2=C(c3ccccc3)C(=O)OC2)cc1 [ROFECOXIB] | > 30 µM | > 30 µM | > 30 µM | > 30 µM | > 10 µM | – | –
29 | CO[C@H]1C[C@@H]2CC[C@@H](C)[C@@](O)(O2)C(=O)C(=O)N2CCCC[C@H]2C(=O)O[C@H]([C@H](C)C[C@@H]2CC[C@@H](O)[C@H](OC)C2)CC(=O)[C@H](C)/C=C(\C)[C@@H](O)[C@@H](OC)C(=O)[C@H](C)C[C@H](C)/C=C/C=C/C=C/1C [SIROLIMUS] | 23.8 µM | > 30 µM | > 30 µM | > 30 µM | – | > 30 µM | –
30 | Cc1cn([C@H]2C=C[C@@H](CO)O2)c(=O)[nH]c1=O [STAVUDINE] | > 30 µM | > 30 µM | > 30 µM | > 30 µM | > 10 µM | – | –
31 | Clc1ccc2nsnc2c1NC1=NCCN1 [TIZANIDINE] | > 30 µM | > 30 µM | > 30 µM | > 30 µM | > 10 µM | – | –
32 | CCOC(=O)[C@H](CCc1ccccc1)N[C@@H](C)C(=O)N1[C@H](C(=O)O)C[C@H]2CCCC[C@@H]21 [TRANDOLAPRIL] | – | – | – | – | – | > 30 µM | –
33 | CCCCCCOc1nsnc1C1=CCCN(C)C1 [XANOMELINE] | – | – | – | – | – | > 30 µM | –
34 | Cc1cn([C@H]2C[C@H](N=[N+]=[N-])[C@@H](CO)O2)c(=O)[nH]c1=O [ZIDOVUDINE] | > 30 µM | > 30 µM | > 30 µM | > 30 µM | > 10 µM | – | –
